From patent US9029389B2 (Institut Pasteur Korea, priority 2011, dated 2015)

The molecules below were run against T1, Human 5-lipoxygenase (Homo sapiens, UniProt P09917) (assay: Activity of compounds against 5-LO enzyme (LTB4 measurement and/or fluorescence method)). Conditions: 5-LO, single concentration of 10 uM in duplicate.
T1 construct: purchased Cayman 60402; host or cells: insect cells
T1 sequence (P09917 1-674): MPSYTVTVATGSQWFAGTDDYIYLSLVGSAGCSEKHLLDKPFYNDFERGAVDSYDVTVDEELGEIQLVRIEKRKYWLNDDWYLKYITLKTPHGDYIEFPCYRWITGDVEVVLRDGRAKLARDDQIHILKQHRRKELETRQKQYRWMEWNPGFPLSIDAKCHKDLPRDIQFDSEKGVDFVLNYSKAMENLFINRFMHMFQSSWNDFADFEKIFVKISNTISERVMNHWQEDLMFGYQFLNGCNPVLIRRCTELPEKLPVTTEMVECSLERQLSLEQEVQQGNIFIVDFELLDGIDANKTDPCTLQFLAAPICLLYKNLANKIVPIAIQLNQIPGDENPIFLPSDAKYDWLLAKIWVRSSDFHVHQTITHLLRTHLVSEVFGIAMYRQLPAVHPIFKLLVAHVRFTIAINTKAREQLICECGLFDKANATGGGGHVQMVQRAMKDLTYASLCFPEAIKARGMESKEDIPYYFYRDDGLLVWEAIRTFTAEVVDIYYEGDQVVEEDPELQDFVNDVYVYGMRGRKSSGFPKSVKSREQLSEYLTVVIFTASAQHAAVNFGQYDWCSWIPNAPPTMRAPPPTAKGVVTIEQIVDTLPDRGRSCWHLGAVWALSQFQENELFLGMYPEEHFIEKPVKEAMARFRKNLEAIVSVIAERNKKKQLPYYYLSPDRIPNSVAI
Format: biochemical
Method in brief: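 Insect-cell human 5-LO preincubated 15 min at RT with compound (pH 7.4, 2 mM CaCl2, 0.1 mM ATP, 1% DMSO), then 3 uM arachidonic acid for 5 min at 37 °C; LTB4 quantified by EIA and/or LC/MS/MS. Alternatively, fluorescence of 5-HpETE via H2DCFDA, 100 uM ATP, 3 uM arachidonic acid, 5 min, RT; single 10 uM screen then 6- or 11-point IC50.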
CCc1nc2cc(Cl)ccn2c1C(=O)NCc1ccc(N2CC3CCCCC3C2)cc1 (centres unmarked) [compound 216, N-(4-(1H-isoindol-2(3H,3aH,4H,5H,6H,7H,7aH)-yl)benzyl)-7-chloro-2-ethylimidazo[1,2-a]pyridine-3-carboxamide] gave an inhibition at 10 µM of 40 to 69%.
For CCc1nc2cc(Cl)ccn2c1C(=O)NCc1ccc(-n2cc3c(c2)CCCC3)cc1 [compound 217, 7-Chloro-2-ethyl-N-(4-(4,5,6,7-tetrahydro-2H-isoindol-2-yl)benzyl)imidazo[1,2-a]pyridine-3-carboxamide], the inhibition at 10 µM was > 69%.
With CCc1nc2ccc(C)cn2c1C(=O)NCc1ccc(Oc2ccc(OC(F)(F)F)cc2)cc1 [compound 232, 2-Ethyl-6-methyl-N-(4-(4-(trifluoromethoxy)phenoxy)benzyl)imidazo[1,2-a]pyridine-3-carboxamide] the inhibition at 10 µM was > 69%.
For CCc1nc2ccc(F)cn2c1C(=O)NCc1ccc(N2CCOCC2)cc1 [compound 241, 2-Ethyl-6-fluoro-N-(4-morpholinobenzyl)imidazo[1,2-a]pyridine-3-carboxamide], the inhibition at 10 µM was < 40%.
For CCc1nc2ccc(Cl)cn2c1C(=O)NCc1ccc(N2CCCCC2C)cc1 (centres unmarked) [compound 251, 6-chloro-2-ethyl-N-(4-(2-methylpiperidin-1-yl)benzyl)imidazo[1,2-a]pyridine-3-carboxamide], the inhibition at 10 µM was < 40%.
For CCc1nc2cc(N3CCN(c4ccc(F)cc4)CC3)ccn2c1C(=O)NCc1ccc(N2CCOCC2)cc1 [compound 256, 2-Ethyl-7-(4-(4-fluorophenyl)piperazin-1-yl)-N-(4-morpholinobenzyl)imidazo[1,2-a]pyridine-3-carboxamide], the inhibition at 10 µM was < 40%.
CCc1nc2ccc(Cl)cn2c1C(=O)NCc1ccc2oc(-c3ccc(F)cc3)nc2c1 [compound 258, 6-Chloro-2-ethyl-N-((2-(4-fluorophenyl)benzo[d]oxazol-5-yl)methyl)imidazo[1,2-a]pyridine-3-carboxamide] was tested, and the inhibition at 10 µM was < 40%.
With CCc1nc2cc(Cl)ccn2c1C(=O)NCc1ccc2oc(-c3ccc(F)cc3)nc2c1 [compound 259, 7-Chloro-2-ethyl-N-((2-(4-fluorophenyl)benzo[d]oxazol-5-yl)methyl)imidazo[1,2-a]pyridine-3-carboxamide] the inhibition at 10 µM was < 40%.
In the case of CCc1nc2c(Br)cccn2c1C(=O)NCc1ccc(N2CCN(c3ccc(F)cc3)CC2)cc1 [compound 260, 8-Bromo-2-ethyl-N-(4-(4-(4-fluorophenyl)piperazin-1-yl)benzyl)imidazo[1,2-a]pyridine-3-carboxamide], the inhibition at 10 µM is reported as > 69%.
CCc1nc2cc(OC)ccn2c1C(=O)NCc1ccc(N2CCOCC2)cc1 [compound 261, 2-Ethyl-7-methoxy-N-(4-morpholinobenzyl)imidazo[1,2-a]pyridine-3-carboxamide] was tested, and the inhibition at 10 µM was < 40%.
CCc1nc2c(OC)cccn2c1C(=O)NCc1ccc(N2CCOCC2)cc1 [compound 262, 2-Ethyl-8-methoxy-N-(4-morpholinobenzyl)imidazo[1,2-a]pyridine-3-carboxamide] was tested, and the inhibition at 10 µM was < 40%.
CCc1nc2c(OC)cccn2c1C(=O)NCc1ccc(N2CCN(c3ccc(F)cc3)CC2)cc1 [compound 263, 2-Ethyl-N-(4-(4-(4-fluorophenyl)piperazin-1-yl)benzyl)-8-methoxyimidazo[1,2-a]pyridine-3-carboxamide] was tested, and the inhibition at 10 µM was 40 to 69%.
CCc1nc2cc(OC)ccn2c1C(=O)NCc1ccc(N2CCN(c3ccc(F)cc3)CC2)cc1 [compound 264, 2-Ethyl-N-(4-(4-(4-fluorophenyl)piperazin-1-yl)benzyl)-7-methoxyimidazo[1,2-a]pyridine-3-carboxamide] was tested, and the inhibition at 10 µM was < 40%.
CCc1nc2ccccn2c1C(=O)NCc1ccc(N2CCC(c3ccc(F)cc3)CC2)cc1 [compound 265, 2-Ethyl-N-(4-(4-(4-fluorophenyl)piperidin-1-yl)benzyl)imidazo[1,2-a]pyridine-3-carboxamide] was tested, and the inhibition at 10 µM was > 69%.
CCc1nc2ccc(Cl)cn2c1C(=O)NCc1ccc(N2CCC(c3ccc(OC(F)(F)F)cc3)CC2)cc1 [compound 267, 6-Chloro-2-ethyl-N-(4-(4-(4-(trifluoromethoxy)phenyl)piperidin-1-yl)benzyl)imidazo[1,2-a]pyridine-3-carboxamide] was tested, and the inhibition at 10 µM was < 40%.
CCc1nc2cc(Cl)ccn2c1C(=O)NCc1ccc(N2CCC(c3ccc(OC(F)(F)F)cc3)CC2)cc1 [compound 268, 7-Chloro-2-ethyl-N-(4-(4-(4-(trifluoromethoxy)phenyl)piperidin-1-yl)benzyl)imidazo[1,2-a]pyridine-3-carboxamide] was tested, and the inhibition at 10 µM was 40 to 69%.
CCOC(=O)C1CCN(c2ccc(CNC(=O)c3c(CC)nc4ccc(Cl)cn34)cc2)CC1 [compound 269, Ethyl1-(4-((6-chloro-2-ethylimidazo[1,2-a]pyridine-3-carboxamido)methyl)phenyl)piperidine-4-carboxylate] showed an inhibition at 10 µM of 40 to 69%.
For CCOC(=O)C1CCN(c2ccc(CNC(=O)c3c(CC)nc4cc(Cl)ccn34)cc2)CC1 [compound 270, Ethyl 1-(4-((7-chloro-2-ethylimidazo[1,2-a]pyridine-3-carboxamido)methyl)phenyl)piperidine-4-carboxylate], the inhibition at 10 µM was 40 to 69%.
With CCc1nc2ccc(OC)cn2c1C(=O)NCc1ccc(N2CCOCC2)cc1 [compound 272] the inhibition at 10 µM was < 40%.
CCc1nc2cc(Cl)ccn2c1C(=O)NCc1ccc(N2CCC(C(=O)O)CC2)cc1 [compound 275, 1-(4-((7-Chloro-2-ethylimidazo[1,2-a]pyridine-3-carboxamido)methyl)phenyl)piperidine-4-carboxylic acid] was tested, and the inhibition at 10 µM was < 40%.
With CCc1nc2ccc(Cl)cn2c1C(=O)NCc1ccc(N2CCC(COC(C)C)CC2)cc1 [compound 276, 6-Chloro-2-ethyl-N-(4-(4-(isopropoxymethyl)piperidin-1-yl)benzyl)imidazo[1,2-a]pyridine-3-carboxamide] the inhibition at 10 µM was < 40%.
In the case of CCc1nc2cc(Cl)ccn2c1C(=O)NCc1ccc(N2CCC(COC(C)C)CC2)cc1 [compound 277, 7-Chloro-2-ethyl-N-(4-(4-(isopropoxymethyl)piperidin-1-yl)benzyl)imidazo[1,2-a]pyridine-3-carboxamide], the inhibition at 10 µM is reported as < 40%.
CCc1nc2cc(C)ccn2c1C(=O)NCc1ccc(OC(F)(F)F)cc1 [compound 280, 2-Ethyl-7-methyl-N-(4-(trifluoromethoxy)benzyl)imidazo[1,2-a]pyridine-3-carboxamide] was tested, and the inhibition at 10 µM was < 40%.
CCc1nc2cc(Br)ccn2c1C(=O)NCc1ccc(OC(F)(F)F)cc1 [compound 281, 7-Bromo-2-ethyl-N-(4-(trifluoromethoxy)benzyl)imidazo[1,2-a]pyridine-3-carboxamide] was tested, and the inhibition at 10 µM was 40 to 69%.
In the case of CCc1nc2c(F)cccn2c1C(=O)NCc1ccc(OC(F)(F)F)cc1 [compound 282, 2-Ethyl-8-fluoro-N-(4-(trifluoromethoxy)benzyl)imidazo[1,2-a]pyridine-3-carboxamide], the inhibition at 10 µM is reported as < 40%.
In the case of CCc1nc2c(-c3ccncc3)cccn2c1C(=O)NCc1ccc(N2CCN(c3ccc(F)cc3)CC2)cc1 [compound 283, 2-Ethyl-N-(4-(4-(4-fluorophenyl)piperazin-1-yl)benzyl)-8-(pyridin-4-yl)imidazo[1,2-a]pyridine-3-carboxamide], the inhibition at 10 µM is reported as < 40%.
CCc1nc2c(-c3ccncc3)cccn2c1C(=O)NCc1ccc(N2CCOCC2)cc1 [compound 284, 2-Ethyl-N-(4-morpholinobenzyl)-8-(pyridin-4-yl)imidazo[1,2-a]pyridine-3-carboxamide] was tested, and the inhibition at 10 µM was < 40%.
In the case of CCc1nc2ccc(Cl)cn2c1C(=O)NCc1ccc(N2CCC(COC3CCCC3)CC2)cc1 [compound 285, 6-Chloro-N-(4-(4-(cyclopentyloxymethyl)piperidin-1-yl)benzyl)-2-ethylimidazo[1,2-a]pyridine-3-carboxamide], the inhibition at 10 µM is reported as < 40%.
CCc1nc2cc(Cl)ccn2c1C(=O)NCc1ccc(N2CCC(COC3CCCC3)CC2)cc1 [compound 286, 7-Chloro-N-(4-(4-(cyclopentyloxymethyl)piperidin-1-yl)benzyl)-2-ethylimidazo[1,2-a]pyridine-3-carboxamide] showed an inhibition at 10 µM of 40 to 69%.
Work on CCc1nc2cc(Cl)ccn2c1C(=O)NCc1ccc(-c2ccc(C=O)cc2)cc1 [compound 287, 7-Chloro-2-ethyl-N-((4′-formylbiphenyl-4-yl)methyl)imidazo[1,2-a]pyridine-3-carboxamide] yielded an inhibition at 10 µM of 40 to 69%.
CCc1nc2ccc(Cl)cn2c1C(=O)NCc1ccc(N2CCC(C(=O)N(C)C)CC2)cc1 [compound 293, 6-Chloro-N-(4-(4-(dimethylcarbamoyl)piperidin-1-yl)benzyl)-2-ethylimidazo[1,2-a]pyridine-3-carboxamide] was tested, and the inhibition at 10 µM was < 40%.

Same assay, conditions: 6 or 11 point dose response in duplicate
CCc1nc2cc(Cl)ccn2c1C(=O)NCc1ccc(-n2cc3c(c2)CCCC3)cc1 [compound 217, 7-Chloro-2-ethyl-N-(4-(4,5,6,7-tetrahydro-2H-isoindol-2-yl)benzyl)imidazo[1,2-a]pyridine-3-carboxamide] showed an IC50 of 1000 to 20000 nM.
With CCc1nc2ccc(C)cn2c1C(=O)NCc1ccc(Oc2ccc(OC(F)(F)F)cc2)cc1 [compound 232, 2-Ethyl-6-methyl-N-(4-(4-(trifluoromethoxy)phenoxy)benzyl)imidazo[1,2-a]pyridine-3-carboxamide] the IC50 was < 1000 nM.
For CCc1nc2c(Br)cccn2c1C(=O)NCc1ccc(N2CCN(c3ccc(F)cc3)CC2)cc1 [compound 260, 8-Bromo-2-ethyl-N-(4-(4-(4-fluorophenyl)piperazin-1-yl)benzyl)imidazo[1,2-a]pyridine-3-carboxamide], the IC50 was > 20000 nM.
In the case of CCc1nc2ccccn2c1C(=O)NCc1ccc(N2CCC(c3ccc(F)cc3)CC2)cc1 [compound 265, 2-Ethyl-N-(4-(4-(4-fluorophenyl)piperidin-1-yl)benzyl)imidazo[1,2-a]pyridine-3-carboxamide], the IC50 is reported as < 1000 nM.
